Converted amounts (≈) assume the structure as drawn.
Experiments:
[1] = system: panel of 125 important Gram positive strains and MDR clinical isolates of MRSA, VRE, and S. epidermidis; experiment: MIC versus panel of 125 strains; assay type: cell-based; settings: panel of 125 strains incl. strains resistant to vancomycin, penicillin, erythromycin and ciprofloxacin
Experimental: Using a broth microdilution assay according to Clinical Laboratory Standards Institute (CSLI) guidelines, we tested 5-(2,5-bis(4-chloro-2-isopropylphenyl)thiophen-3-yl)-1H-tetrazole (“Test Article” in below table) to establish MICs against a broad range of MDR bacteria and noted substantive activity versus methicillin-resistant Staphylococcus aureus (MRSA), vancomycin-resistant Enterococcus (VRE) and Streptococcus spp. Antimicrobial susceptibility testing was performed by a microdilution broth assay according to CLSI guidelines. The inoculum was prepared from stationary-phase cultures diluted in water. Microtiter plate wells received aliquots of 100 μL of the compound diluted in Mueller-Hinton II cation adjusted media. The final concentration of compound typically ranged from 250 to 0.125 μg/ml in serial two-fold dilutions. In addition to the test compound, growth and sterility controls were included, along with DMSO vehicle control rows. The microtiter plates were inoculated with 5×10^5 bacteria and incubated overnight at 35° C. in a humidified atmosphere. […]

AcpS = AcpS enzyme activity assay; assay type: biochemical, S. aureus and E. coli; settings: [3H]-labeled holo-ACP formation
Experimental: The acpS gene was amplified from S. aureus and E. coli genomic DNA and inserted into a pET23b vector using standard recombinant DNA methodology such that the protein product would result in addition of a C-terminal 6×-His tag in frame with the AcpS open reading frames. […] Recombinant His-Tagged AcpS expression was induced by IPTG addition and overnight culture. Cell lysate was obtained by sequential aspiration through 16, 18 and 21 G needles in a buffer of 50 mM Tris-HCl (pH 8.5), 10 mM MgCl2, 2 mM DTT, 5% glycerol, and further adjusted to pH 8.1 with MES. […] In a typical AcpS enzyme activity assay, 57 μM [^3H]-labeled acyl-CoA, 2 μg apo-ACP, 10 mM MgCl2, 5 mM DTT, 50 mM Na phosphate (pH 7.0), and AcpS in a final volume of 10 μL were incubated at room temperature in a 1.5 mL microcentrifuge tube. At 5, 10, 15, and 20 minutes 2 μL of reaction were added to 750 μL 10% TCA on ice. Bovine serum albumin (BSA; 20 μl of a 25 mg/ml solution) was then added to facilitate precipitation of radiolabeled protein. The samples were centrifuged at 12 000 rcf for 5 min. […] 2 mL of scintillation fluid was added, and the amount of [^3H]-labeled holo-ACP formed was quantified by liquid scintillation counting. Each data point (remaining AcpS enzyme activity) was expressed as a percentage of vehicle control, with the median value of four time points presented.

[2] = system: mupirocin resistant S. aureus strains (MMX 1013, MMX 7779, MMX 7782, MMX 8845, MMX 9202); experiment: MIC versus mupirocin resistant S. aureus panel; assay type: cell-based; settings: Staphylococcus aureus; mupirocin resistant S. aureus MMX 1013, MMX 7779, MMX 7782, MMX 8845, MMX 9202
Experimental: Using a broth microdilution assay according to Clinical Laboratory Standards Institute (CSLI) guidelines, we tested 5-(2,5-bis(4-chloro-2-isopropylphenyl)thiophen-3-yl)-1H-tetrazole (“Test Article” in below table) to establish MICs against a broad range of MDR bacteria and noted substantive activity versus methicillin-resistant Staphylococcus aureus (MRSA), vancomycin-resistant Enterococcus (VRE) and Streptococcus spp. Antimicrobial susceptibility testing was performed by a microdilution broth assay according to CLSI guidelines. The inoculum was prepared from stationary-phase cultures diluted in water. Microtiter plate wells received aliquots of 100 μL of the compound diluted in Mueller-Hinton II cation adjusted media. The final concentration of compound typically ranged from 250 to 0.125 μg/ml in serial two-fold dilutions. In addition to the test compound, growth and sterility controls were included, along with DMSO vehicle control rows. The microtiter plates were inoculated with 5×10^5 bacteria and incubated overnight at 35° C. in a humidified atmosphere.

CC(C)c1cc(Cl)ccc1-c1cc(-c2nnn[nH]2)c(-c2ccc(Cl)cc2C(C)C)s1 [Test Article, 5-(2,5-bis(4-chloro-2-isopropylphenyl)thiophen-3-yl)-1H-tetrazole]
MIC [1]: 0.5 to 1 µg/mL (≈ 1.09 to 2.19 µM)
AcpS inhibition (AcpS): inhibited
MIC [2]: 2 µg/mL (≈ 4.37 µM)
